Results taken from US4704403A, “3-(2,2,2-trisubstituted hydrazinium) propionates” (priority 1983, dated 1987).

How the values were obtained:
[1] = test system: arrhythmia caused by introduction of calcium chloride; experiment: Antiarrhythmic activity on the model of arrhythmia caused by calcium chloride (antagonism towards calcium); assay type: in vivo, mice; conditions: for Dose of calcium chloride causing arrhythmia: control 85.0; for Dose of calcium chloride causing heart arrest: control 100.0
Method: In experiments on white mice with a mass of 18-25 g narcotized with urethane an electrocardiogram was recorded in the second standard lead. A 2% solution of calcium chloride was introduced into the tail vein at a constant rate (0.01 ml for 2 seconds). The dose of calcium chloride causing arrhythmia and the dose causing heart arrest were determined. In experimental groups the test compounds were administered 20-40 minutes prior to the beginning of the experiment intraperitoneally.

white mice = experiment: Acute toxicity upon intraperitoneal administration to white mice; assay type: in vivo; conditions: i.p.
Method: (§1) The acute toxicity of the compounds according to the present invention was studied on white mice of both sexes with a mass of 20-25 g. A saturated aqueous solution of the compounds or a suspension in Tween-80 was administered to the animals intraperitoneally. The observation over the animals was carried out for 14 days. The results obtained were processed following the Litchfield-Wilkoxon method. As it follows from the data shown in Table 5 hereinbelow, the studied compounds have a very low acute toxicity, thus providing a large spectrum of the therapeutic effect.

[2] = as above; assay type: in vivo; conditions: mouse, in vivo, ip, 14 days observation, average values with confidential limits at P=0.05
Method: as §1

[3] = test system: hypertensive male rats of the Akamoto-Aoki line; experiment: Variation of arterial pressure upon intraperitoneal administration to hypertensive rats; assay type: in vivo
Method: The study of hypotensive properties of the compounds of this invention has been carried out of hypertensive male rats of the Akamoto-Aoki line aged 25-30 weeks. The animals were divided into groups (7-10 rats in each) and for 2 weeks before the beginning of the experiment they were subjected to an every-day training for adaptation to the unit for measurements of the arterial pressure. The systolic and diastolic arterial pressure were measured indirectly on the tail artery. The level of the arterial pressure prior to administration of the test compounds was measured by way of a triple determination thereof--2 days, one day and right before the administration of the preparation. The compounds were administered intraperitoneally in the form of a 2.5% aqueous solution or a 2.5% suspension in Twin-80 in the dose of 50 mg/kg. The measurement of the arterial pressure was effected 30 minutes, 1, 2, 3 and 4 hours and in some cases 24 hours after the administration of the preparation. For a number of compounds featuring a high efficiency, also determined was the dose causing reduction of the arterial pressure by 30% as compared with the starting level (ED30). The statistical processing of the data obtained was carried out using the Student certainty criterion.

[4] = test system: spontaneously hypertensive rats of the Akamoto-Aoki line; experiment: Systolic arterial pressure of spontaneously hypertensive rats upon a repeated peroral administration; assay type: in vivo
Method: Thus, after a four-days course of administration (once a day, per os) of the compounds according to the present invention an essential reduction of the arterial pressure in the test animals is observed which is not returned to the initial level even an expiration of four days after discontinuation of the preparation administration, whereas the hypotensive effect of nifedipine is manifested for only 8 hours.

[5] = 30 minutes, 50 mg/kg i.p. (nifedipine 1 mg/kg i.p.)
[6] = 1 hour, 50 mg/kg i.p. (nifedipine 1 mg/kg i.p.)
[7] = 2 hours, 50 mg/kg i.p. (nifedipine 1 mg/kg i.p.)
[8] = 4 hours, 50 mg/kg i.p. (nifedipine 1 mg/kg i.p.)
[9] = after four-days p.o. course, benzyl 40 mg/kg, allyl 50 mg/kg, nifedipine dose not given
[10] = p.o. once a day, benzyl 40 mg/kg, allyl 50 mg/kg, nifedipine dose not given
[11] = p.o., benzyl 40 mg/kg, allyl 50 mg/kg, nifedipine dose not given

Structure (SMILES)	Dose of calcium chloride causing arrhythmia ([1]; compound dose 5 mg/kg i.p.)	Dose of calcium chloride causing heart arrest ([1]; compound dose 5 mg/kg i.p.)	Dose of calcium chloride causing arrhythmia ([1]; compound dose 15 mg/kg i.p.)	Dose of calcium chloride causing heart arrest ([1]; compound dose 15 mg/kg i.p.)	Relative toxicity with respect to quinidine (LD50 / LD50 of quinidine) (white mice)	LD50 at 336 h [2] [mg/kg]	Average variation of the diastolic arterial pressure [3, 5]	Average variation of the systolic arterial pressure [3, 5]	Average variation of the diastolic arterial pressure [3, 6]	Average variation of the systolic arterial pressure [3, 6]	Average variation of the diastolic arterial pressure [3, 7]	Average variation of the systolic arterial pressure [3, 7]	Average variation of the diastolic arterial pressure [3, 8]	Average variation of the systolic arterial pressure [3, 8]	further results
C#CC[N+](C)(C)NCCC(=O)[O-] [3-(2,2-dimethyl-2-propargylhydrazinium)propionate hydrogen bromide]	110.4	125.0	120.0	135.0	10.5	1650	-17 % of the initial	-6 % of the initial	-16 % of the initial	-10 % of the initial	-7 % of the initial	-10 % of the initial	-10 % of the initial	-6 % of the initial	–
CC[N+](CC)(CC)NCCC(=O)[O-] [3-(2,2,2-Triethylhydrazinium)propionate, 3-(2,2,2-triethylhydrazinium)propionate monohydrate]	100.0	120.0	127.0	142.5	above 19.2	> 3000	–	–	–	–	–	–	–	–	–
CC[N+](C)(CC)NCCC(=O)[O-] [3-(2-methyl-2,2-diethylhydrazinium)propionate monohydrate]	105.5	118.6	120.0	136.0	9.3	1450	+10 % of the initial	+4 % of the initial	-4 % of the initial	+2 % of the initial	+1 % of the initial	0 % of the initial	-8 % of the initial	-6 % of the initial	–
C[N+](C)(Cc1cccc2ccccc12)NCCC(=O)[O-] [3-(2,2-dimethyl-2-naphthylmethylhydrazinium)propionate]	108.0	132.5	126.7	143.0	above 19.2	> 3000	0 % of the initial	0 % of the initial	-3 % of the initial	0 % of the initial	-2 % of the initial	-3 % of the initial	-14 % of the initial	-5 % of the initial	Average variation of the diastolic arterial pressure ([3]; 24 hours, 50 mg/kg i.p.): -7 % of the initial; Average variation of the systolic arterial pressure ([3]; 24 hours, 50 mg/kg i.p.): -4 % of the initial
COC(=O)C1=C(C)NC(C)=C(C(=O)OC)C1c1ccccc1[N+](=O)[O-] [Nifedipine, reference compound]	–	–	–	–	–	–	-8 % of the initial	-4 % of the initial	-14 % of the initial	-12 % of the initial	-21 % of the initial	-8 % of the initial	-31 % of the initial	-11 % of the initial	Systolic arterial pressure, 5th day [4, 9]: 178 mm Hg; Systolic arterial pressure, 8th day [4, 9]: 186 mm Hg; Systolic arterial pressure, 10th day [4, 9]: 182 mm Hg; Systolic arterial pressure, 2nd day after administration ([4]; p.o. once a day, allyl 50 mg/kg, nifedipine dose not given): 148 mm Hg; Systolic arterial pressure, 1st day after administration ([4]; p.o. once a day, benzyl 40 mg/kg (initial 195.8), allyl 50 mg/kg (initial 176.6), nifedipine dose not given (initial 184.0)): 150.0 mm Hg; Systolic arterial pressure, 2nd day before administration [4, 10]: 186 mm Hg; Systolic arterial pressure, 3rd day after administration [4, 10]: 153 mm Hg; Systolic arterial pressure, 4th day after administration [4, 10]: 146 mm Hg; Systolic arterial pressure, 4th day before administration [4, 10]: 180 mm Hg; Systolic arterial pressure, 3rd day before administration ([4]; p.o. once a day, benzyl 40 mg/kg, nifedipine dose not given): 183 mm Hg; Percent in parentheses (change of systolic pressure from initial), 2nd day after administration ([4]; p.o., allyl 50 mg/kg, nifedipine dose not given): 20%; Percent in parentheses (change of systolic pressure from initial), 1st day after administration [4, 11]: 18%; Percent in parentheses (change of systolic pressure from initial), 3rd day after administration [4, 11]: 17%; Percent in parentheses (change of systolic pressure from initial), 4th day after administration [4, 11]: 21%; Percent in parentheses (change of systolic pressure from initial), 4th day before administration [4, 11]: 2%; Percent in parentheses (change of systolic pressure from initial), 5th day [4, 11]: 3%; duration of hypotensive effect ([4]; repeated p.o.): 8 h
CCC[N+](C)(C)NCCC(=O)[O-] [3-(2,2-dimethyl-2-propylhydrazinium)propionate]	112.5	123.0	125.3	140.5	11.5	1800	–	–	–	–	–	–	–	–	–
C=C[C@H]1C[N@@]2CC[C@H]1C[C@@H]2[C@@H](O)c1ccnc2ccc(OC)cc12 [Quinidine, reference compound]	–	–	–	–	1	156	–	–	–	–	–	–	–	–	Dose of calcium chloride causing arrhythmia ([1]; compound dose 3 mg/kg i.p.): 126.9; Dose of calcium chloride causing heart arrest ([1]; compound dose 3 mg/kg i.p.): 136.0; Dose of calcium chloride causing arrhythmia ([1]; compound dose 10 mg/kg i.p.): 120.8; Dose of calcium chloride causing heart arrest ([1]; compound dose 10 mg/kg i.p.): 133.5
C[N+](C)(CC[N+](C)(C)NCCC(=O)[O-])NCCC(=O)[O-] [3-(2,2-dimethyl-2-[1',1'-dimethyl-2'-carboxylatoethylhydrazin-1'-ium]-ethylhydrazinium)propionate dihydrate]	96.0	112.0	108.5	120.0	13.4	2100	–	–	–	–	–	–	–	–	–
